Publication PMC7582308, “Functional Characterization of a Dendrobium officinale Geraniol Synthase DoGES1 Involved in Floral Scent Formation” (International Journal of Molecular Sciences, 2020)

Biological target: T1, DoGES1 (Dendrobium officinale, UniProt A0A7H9SVV5)
T1 construct: gene GES1
T1 sequence (A0A7H9SVV5 1-582): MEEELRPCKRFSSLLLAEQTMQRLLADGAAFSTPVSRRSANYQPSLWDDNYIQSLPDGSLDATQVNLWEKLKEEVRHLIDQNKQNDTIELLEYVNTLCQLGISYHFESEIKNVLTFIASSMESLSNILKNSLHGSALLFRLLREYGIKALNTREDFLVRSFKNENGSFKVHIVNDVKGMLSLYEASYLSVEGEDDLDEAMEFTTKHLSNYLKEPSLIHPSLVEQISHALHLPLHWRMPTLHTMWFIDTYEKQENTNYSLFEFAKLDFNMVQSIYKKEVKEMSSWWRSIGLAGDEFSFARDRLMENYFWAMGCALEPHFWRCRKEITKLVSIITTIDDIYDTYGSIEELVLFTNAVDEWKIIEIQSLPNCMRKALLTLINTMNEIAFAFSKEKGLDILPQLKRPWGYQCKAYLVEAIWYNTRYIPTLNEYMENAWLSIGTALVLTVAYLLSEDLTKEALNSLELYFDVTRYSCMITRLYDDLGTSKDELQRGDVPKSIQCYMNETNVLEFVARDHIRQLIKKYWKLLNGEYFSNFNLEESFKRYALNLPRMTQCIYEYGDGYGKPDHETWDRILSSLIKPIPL
Test: GC-MS detection of geraniol product
Format: biochemical
Settings: 10 mM GPP, 10 mM MgCl2, 5 mM dithiothreitol, MOPSO pH 7.0, 30 °C, 1 h

## CC(C)=CCC/C(C)=C/COP(=O)(O)OP(=O)(O)O [geranyl pyrophosphate]
  GC-MS detection of geraniol product: After incubation with GPP as substrate for the synthesis of monoterpenes, recombinant DoGES1 proteins successfully yielded geraniol
